Results reported in patent US20240239861A1, “GLUCAGON-RECEPTOR SELECTIVE POLYPEPTIDES AND METHODS OF USE THEREOF” (i2O Therapeutics, Inc., priority 2016, published 2024).
Like-named read-outs stand apart in the source and are kept apart here. *1 amine or outer side, *2 acyl side, *3 side chain or, on linkers, in order; H or OH if unused. Where a SMILES comes first, the peptide text is derived from it. Side-chain parts run from the residue outwards. The star is where a group is joined. γGlu = O=C(O)[C@H](CCC(=O)[*:2])N[*:1]; Palmitoyl = CCCCCCCCCCCCCCCC(=O)*

Key:
[1] = molecular target: human GLP-1R (Homo sapiens, UniProt P43220); test: Peptide-receptor mediated cAMP accumulation (LANCE Ultra cAMP) in CHO-K1 cells transfected with human GLP-1R; type: cell-based
Sequence of human GLP-1R (P43220 24-463): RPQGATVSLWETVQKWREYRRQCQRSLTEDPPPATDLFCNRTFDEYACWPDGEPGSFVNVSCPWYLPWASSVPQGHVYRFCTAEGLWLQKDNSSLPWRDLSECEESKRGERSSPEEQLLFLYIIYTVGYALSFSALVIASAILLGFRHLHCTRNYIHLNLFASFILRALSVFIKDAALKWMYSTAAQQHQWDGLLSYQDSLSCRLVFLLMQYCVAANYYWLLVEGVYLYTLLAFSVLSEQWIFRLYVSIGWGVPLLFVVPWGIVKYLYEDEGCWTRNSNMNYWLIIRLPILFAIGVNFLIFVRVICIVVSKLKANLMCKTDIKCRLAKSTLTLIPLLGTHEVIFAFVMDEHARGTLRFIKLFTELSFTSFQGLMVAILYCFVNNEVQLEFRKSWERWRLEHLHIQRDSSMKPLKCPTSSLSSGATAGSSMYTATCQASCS

[2] = Solubility in water or saline at room temperature, visual inspection; type: physicochemical; conditions: Solubility in water mg/ml
From the text: Samples were visually inspected for clarity of the sample, any appearance of turbidity or haziness.

[3] = in vivo; conditions: male, rat
Protocol: Peptides were formulated in sterile saline and administered as a 3-hour intravenous infusion to non-fasted male Wistar Han or Sprague-Dawley rats (n=3 per group) via jugular vein cannula at a final dose of 0.3 or 0.1 mg/kg. […] Plasma was prepared by centrifugation and stored at −80° C. until analysis.
Protein Precipitation: All 96-well plates were coated with a blocking agent to mitigate non-specific binding of peptides. Plasma samples (75 uL) were added to a 96-well plate containing 200 uL of 2:1 ethanol:acetonitrile containing 0.1% TFA and mixed well via aspiration. Plates were capped, vortex-mixed and centrifuged. Supernatants (215 uL) were transferred to a clean 96-well plate, evaporated to dryness under nitrogen flow and then reconstituted in 75 μL of 20% acetonitrile in water containing 0.10% formic acid.
Solid-Phase Extraction: Samples were diluted 3-fold with 5% NH4OH (aq) and loaded onto an Oasis MAX microElution plate (Waters Corp, Milford, MA) that had been pre-conditioned with 200 uL each of methanol and 5% NH4OH (aq). The plate was washed with 200 uL 5% NH4OH (aq), followed by 200 uL 20% acetonitrile in water. […] Samples were reconstituted in 80 uL 0.1% formic acid in water.
All calibration standards were prepared in control rat plasma containing K2EDTA and protease inhibitor cocktail. […] Samples were injected onto a 2.1×50 mm reverse phase C18 analytical column, typically a Waters ACQUITY UPLC™ HSS T3, 1.8 μm (Waters Corporation, Milford, MA) or similar. […] Typical flow rates were 600 L/min. The column temperature was held constant at 40 or 45° C. Peptides were quantified my monitoring one or more product ions produced from a multiply charged parent ion.

[4] = Stability in water or saline at 37° C. and room temperature, 30 days, LC/MS and HPLC purity; type: physicochemical
From the text: Samples were withdrawn at a regular interval for 30 days and analyzed by LC/MS and HPLC for determination of purity and mass of the degradation product.

[5] = FIGURE 2A
[6] = molecular target: human GCGR (Homo sapiens, UniProt P47871); test: Peptide-receptor mediated cAMP accumulation (LANCE Ultra cAMP) in CHO-K1 cells transfected with human GCGR; type: cell-based; conditions: read-out: GluR pEC50 (converted)
Sequence of human GCGR (P47871 26-477): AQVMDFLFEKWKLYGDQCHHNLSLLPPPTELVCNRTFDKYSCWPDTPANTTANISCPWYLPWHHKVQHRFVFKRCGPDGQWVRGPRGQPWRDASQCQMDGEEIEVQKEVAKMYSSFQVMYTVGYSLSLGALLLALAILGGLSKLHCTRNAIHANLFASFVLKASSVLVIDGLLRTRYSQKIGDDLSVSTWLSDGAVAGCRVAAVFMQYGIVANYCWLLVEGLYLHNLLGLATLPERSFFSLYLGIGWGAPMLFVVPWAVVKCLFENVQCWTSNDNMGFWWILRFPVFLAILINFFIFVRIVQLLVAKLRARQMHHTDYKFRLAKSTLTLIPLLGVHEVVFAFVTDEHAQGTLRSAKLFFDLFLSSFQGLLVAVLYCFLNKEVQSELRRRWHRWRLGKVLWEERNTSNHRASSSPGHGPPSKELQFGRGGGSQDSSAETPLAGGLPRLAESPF

[7] = Clearance following intravenous infusion, acylated peptides (1-hour infusion, 0.033 mg/kg); conditions: rat, in vivo
[8] = hGLP1 pEC50 (cAMP mean (n = 3): 11 point curve starting at 1 nM, Table 3)
[9] = hGLP1 pEC50 (cAMP) mean (n = 3): 11 point curve starting at 1 nM, Table 2B
[10] = Table 7, GLP-1R, read-out: GLP-1R pEC50 (converted)

Compound	EC50 [1, 8] [nM]	EC50 [1, 9] [nM]	solubility [2] [mg/mL]	clearance [3] [mL/min/kg]	Stability 1 mg/ml in water at 37 degC [4] [%]	CL [5] [mL/min/kg]	EC50 [1, 10] [nM]	EC50 [6] [nM]	clearance [7] [mL/min/kg]	half-life [7] [min]
CC(C)C[C@H](NC(=O)[C@H](Cc1ccc(O)cc1)NC(=O)[C@H](CCCCN)NC(=O)[C@H](CO)NC(=O)[C@H](Cc1ccc(O)cc1)NC(=O)[C@H](CC(=O)O)NC(=O)[C@H](CO)NC(=O)[C@@H](NC(=O)[C@H](Cc1ccccc1)NC(=O)[C@@H](NC(=O)CNC(=O)[C@H](Cc1c[nH]cn1)NC(=O)[C@H](CO)NC(=O)[C@@H](N)Cc1ccc(O)cc1)[C@@H](C)O)[C@@H](C)O)C(=O)N[C@@H](CC(=O)O)C(=O)N[C@@H](C)C(=O)N[C@@H](C)C(=O)N[C@@H](CCCNC(=N)N)C(=O)N[C@@H](C)C(=O)N[C@@H](CCC(N)=O)C(=O)N[C@@H](CCC(=O)O)C(=O)N[C@@H](Cc1ccccc1)C(=O)N[C@H](C(=O)N[C@@H](CCCCN)C(=O)N[C@@H](Cc1c[nH]c2ccccc12)C(=O)N[C@@H](CC(C)C)C(=O)N[C@@H](CCC(=O)O)C(=O)N[C@@H](CC(=O)O)C(=O)N[C@@H](CCC(=O)O)C(=O)N1CCC[C@H]1C(=O)N[C@@H](CO)C(=O)N[C@@H](CO)C(=O)NCC(=O)N[C@@H](C)C(=O)N1CCC[C@H]1C(=O)N1CCC[C@H]1C(=O)N1CCC[C@H]1C(=O)N[C@@H](CO)C(=O)O)C(C)C [Compound A97] (H-YSHGTFTSDYSKYLDAARAQEFVKWLEDEPSSGAPPPS-OH; N-terminus assumed)	> 1	> 1	> 200	18.9	>59					
CC(C)C[C@H](NC(=O)[C@H](Cc1c[nH]c2ccccc12)NC(=O)[C@H](CCCCN)NC(=O)[C@@H](NC(=O)[C@H](Cc1ccccc1)NC(=O)[C@H](CCC(=O)O)NC(=O)[C@H](CCC(N)=O)NC(=O)[C@H](C)NC(=O)[C@H](CCCNC(=N)N)NC(=O)[C@H](CCCCN)NC(=O)[C@H](CO)NC(=O)[C@H](CCC(=O)O)NC(=O)[C@H](CC(C)C)NC(=O)[C@H](CC(C)C)NC(=O)[C@H](CCCNC(=N)N)NC(=O)[C@@H](NC(=O)[C@H](Cc1ccc(O)cc1)NC(=O)[C@H](CC(=O)O)NC(=O)[C@H](CO)NC(=O)[C@@H](NC(=O)[C@H](Cc1ccccc1)NC(=O)[C@@H](NC(=O)CNC(=O)[C@H](Cc1c[nH]cn1)NC(=O)[C@H](CO)NC(=O)[C@@H](N)Cc1ccc(O)cc1)[C@@H](C)O)[C@@H](C)O)[C@@H](C)O)C(C)C)C(=O)N[C@@H](CCC(=O)O)C(=O)N[C@@H](CC(=O)O)C(=O)N[C@@H](CCC(=O)O)C(=O)N1CCC[C@H]1C(=O)N[C@@H](CO)C(=O)N[C@@H](CO)C(=O)NCC(=O)N[C@@H](C)C(=O)N1CCC[C@H]1C(=O)N1CCC[C@H]1C(=O)N1CCC[C@H]1C(=O)N[C@@H](CO)C(=O)O [Compound A98] (H-YSHGTFTSDYTRLLESKRAQEFVKWLEDEPSSGAPPPS-OH; N-terminus assumed)	> 1	> 1	> 200		>75	51.5 ± 13.4				
CC(C)C[C@H](NC(=O)[C@H](Cc1ccc(O)cc1)NC(=O)[C@H](CCCCN)NC(=O)[C@H](CO)NC(=O)[C@H](Cc1ccc(O)cc1)NC(=O)[C@H](CC(=O)O)NC(=O)[C@H](CO)NC(=O)[C@@H](NC(=O)[C@H](Cc1ccccc1)NC(=O)[C@@H](NC(=O)CNC(=O)[C@H](Cc1c[nH]cn1)NC(=O)[C@H](CO)NC(=O)[C@@H](N)Cc1ccc(O)cc1)[C@@H](C)O)[C@@H](C)O)C(=O)N[C@@H](CC(=O)O)C(=O)NC(C)(C)C(=O)N[C@@H](CCCCN)C(=O)N[C@@H](CCCNC(=N)N)C(=O)N[C@@H](C)C(=O)N[C@@H](CCC(N)=O)C(=O)N[C@@H](CCC(=O)O)C(=O)N[C@@H](Cc1ccccc1)C(=O)N[C@H](C(=O)NC(C)(C)C(=O)N[C@@H](Cc1c[nH]c2ccccc12)C(=O)N[C@@H](CC(C)C)C(=O)N[C@@H](CCC(=O)O)C(=O)N[C@@H](CC(=O)O)C(=O)N[C@@H](CCC(=O)O)C(=O)O)C(C)C [Compound A100]	> 1	> 1	> 200		>69	120 ± 39				
CC(C)C[C@H](NC(=O)[C@H](Cc1c[nH]c2ccccc12)NC(=O)[C@H](CCCCNC(=O)COCCOCCNC(=O)COCCOCCNC(=O)CC[C@H](NC(=O)CCCCCCCCCCCCCCCCC(=O)O)C(=O)O)NC(=O)[C@@H](NC(=O)[C@H](Cc1ccccc1)NC(=O)[C@H](CCC(=O)O)NC(=O)[C@H](CCC(N)=O)NC(=O)[C@H](C)NC(=O)[C@H](CO)NC(=O)[C@H](CCCCN)NC(=O)C(C)(C)NC(=O)[C@H](CC(=O)O)NC(=O)[C@H](CC(C)C)NC(=O)[C@H](Cc1ccc(O)cc1)NC(=O)[C@H](CCCCN)NC(=O)[C@H](CO)NC(=O)[C@H](Cc1ccc(O)cc1)NC(=O)[C@H](CC(=O)O)NC(=O)[C@H](CO)NC(=O)[C@@H](NC(=O)[C@H](Cc1ccccc1)NC(=O)[C@@H](NC(=O)CNC(=O)[C@H](Cc1c[nH]cn1)NC(=O)[C@H](CO)NC(=O)[C@@H](N)Cc1ccc(O)cc1)[C@@H](C)O)[C@@H](C)O)C(C)C)C(=O)N[C@@H](CCC(=O)O)C(=O)N[C@@H](CC(=O)O)C(=O)N[C@@H](CCC(=O)O)C(=O)N1CCC[C@H]1C(=O)N[C@@H](CO)C(=O)N[C@@H](CO)C(=O)NCC(=O)N[C@@H](C)C(=O)N1CCC[C@H]1C(=O)N1CCC[C@H]1C(=O)N1CCC[C@H]1C(=O)N[C@@H](CO)C(=O)O [Compound B14]							> 1000	0.501	2.65	834
CC(C)C[C@H](NC(=O)[C@H](Cc1ccc(O)cc1)NC(=O)[C@H](CCCCN)NC(=O)[C@H](CO)NC(=O)[C@H](Cc1ccc(O)cc1)NC(=O)[C@H](CC(=O)O)NC(=O)[C@H](CO)NC(=O)[C@@H](NC(=O)[C@H](Cc1ccccc1)NC(=O)[C@@H](NC(=O)CNC(=O)[C@H](Cc1c[nH]cn1)NC(=O)[C@H](CO)NC(=O)[C@@H](N)Cc1ccc(O)cc1)[C@@H](C)O)[C@@H](C)O)C(=O)N[C@@H](CC(=O)O)C(=O)N[C@@H](CCCCNC(=O)COCCOCCNC(=O)COCCOCCNC(=O)CC[C@H](NC(=O)CCCCCCCCCCCCCCCCC(=O)O)C(=O)O)C(=O)N[C@@H](CCCCN)C(=O)N[C@@H](CO)C(=O)N[C@@H](C)C(=O)N[C@@H](CCC(N)=O)C(=O)N[C@@H](CCC(=O)O)C(=O)N[C@@H](Cc1ccccc1)C(=O)N[C@H](C(=O)NC(C)(C)C(=O)N[C@@H](Cc1c[nH]c2ccccc12)C(=O)N[C@@H](CC(C)C)C(=O)N[C@@H](CCC(=O)O)C(=O)N[C@@H](CC(=O)O)C(=O)N[C@@H](CCC(=O)O)C(=O)N1CCC[C@H]1C(=O)N[C@@H](CO)C(=O)N[C@@H](CO)C(=O)NCC(=O)N[C@@H](C)C(=O)N1CCC[C@H]1C(=O)N1CCC[C@H]1C(=O)N1CCC[C@H]1C(=O)N[C@@H](CO)C(=O)O)C(C)C [Compound B15]							> 1000	0.126	0.457	560
CCCCCCCCCCCCCCCC(=O)N[C@@H](CCC(=O)NCCCC[C@H](NC(=O)[C@H](CO)NC(=O)[C@H](CCCCN)NC(=O)[C@@H]1CCCN1C(=O)[C@H](CCC(=O)O)NC(=O)[C@H](CC(=O)O)NC(=O)[C@H](CCC(=O)O)NC(=O)[C@H](CC(C)C)NC(=O)[C@H](Cc1c[nH]c2ccccc12)NC(=O)[C@H](CCCCN)NC(=O)[C@@H](NC(=O)[C@H](Cc1ccccc1)NC(=O)[C@H](CCC(=O)O)NC(=O)[C@H](CCC(N)=O)NC(=O)[C@H](C)NC(=O)[C@H](CCCNC(=N)N)NC(=O)[C@H](C)NC(=O)[C@H](C)NC(=O)[C@H](CC(=O)O)NC(=O)[C@H](CC(C)C)NC(=O)[C@H](Cc1ccc(O)cc1)NC(=O)[C@H](CCCCN)NC(=O)[C@H](CO)NC(=O)[C@H](Cc1ccc(O)cc1)NC(=O)[C@H](CC(=O)O)NC(=O)[C@H](CO)NC(=O)[C@@H](NC(=O)[C@H](Cc1ccccc1)NC(=O)[C@@H](NC(=O)CNC(=O)[C@H](CCC(N)=O)NC(=O)[C@H](CO)NC(=O)[C@@H](N)Cc1ccc(O)cc1)[C@@H](C)O)[C@@H](C)O)C(C)C)C(=O)N[C@@H](CO)C(=O)N1CCC[C@H]1C(=O)N1CCC[C@H]1C(=O)N1CCC[C@H]1C(=O)N[C@@H](CO)C(N)=O)C(=O)O [Compound B33] (H-YSQGTFTSDYSKYLDAARAQEFVKWLEDEPKSK([γGlu-Palmitoyl])SPPPS-NH2)							> 1000	0.0251	6.96	25.7
CCCCCCCCCCCCCCCC(=O)N[C@@H](CCC(=O)NCCCC[C@H](NC(=O)[C@H](CO)NC(=O)[C@H](CO)NC(=O)[C@@H]1CCCN1C(=O)[C@H](CCC(=O)O)NC(=O)[C@H](CC(=O)O)NC(=O)[C@H](CCC(=O)O)NC(=O)[C@H](CC(C)C)NC(=O)[C@H](Cc1c[nH]c2ccccc12)NC(=O)[C@H](CCCCN)NC(=O)[C@@H](NC(=O)[C@H](Cc1ccccc1)NC(=O)[C@H](CCC(=O)O)NC(=O)[C@H](CCC(N)=O)NC(=O)[C@H](C)NC(=O)[C@H](CCCNC(=N)N)NC(=O)[C@H](C)NC(=O)[C@H](CO)NC(=O)[C@H](CC(=O)O)NC(=O)[C@H](CC(C)C)NC(=O)[C@H](Cc1ccc(O)cc1)NC(=O)[C@H](CCCCN)NC(=O)[C@H](CO)NC(=O)[C@H](Cc1ccc(O)cc1)NC(=O)[C@H](CC(=O)O)NC(=O)[C@H](CO)NC(=O)[C@@H](NC(=O)[C@H](Cc1ccccc1)NC(=O)[C@@H](NC(=O)CNC(=O)[C@H](Cc1c[nH]cn1)NC(=O)[C@H](CO)NC(=O)[C@@H](N)Cc1ccc(O)cc1)[C@@H](C)O)[C@@H](C)O)C(C)C)C(=O)N[C@@H](C)C(=O)N1CCC[C@H]1C(=O)N1CCC[C@H]1C(=O)N1CCC[C@H]1C(=O)N[C@@H](CO)C(N)=O)C(=O)O [Compound B41] (H-YSHGTFTSDYSKYLDSARAQEFVKWLEDEPSSK([γGlu-Palmitoyl])APPPS-NH2)							> 1000	0.0251	4.86	65.4
